The source of these data is US20250170130A1, “MODULATORS OF MYC FAMILY PROTO-ONCOGENE PROTEIN” (Nalo Therapeutics, priority 2022, published 2025).

For assay [1], the target named is T1, MycN (Homo sapiens, UniProt P04198).
T1 construct: endogenous in cells; host or cells: SK-N-BE(2)
T1 sequence (P04198 1-464): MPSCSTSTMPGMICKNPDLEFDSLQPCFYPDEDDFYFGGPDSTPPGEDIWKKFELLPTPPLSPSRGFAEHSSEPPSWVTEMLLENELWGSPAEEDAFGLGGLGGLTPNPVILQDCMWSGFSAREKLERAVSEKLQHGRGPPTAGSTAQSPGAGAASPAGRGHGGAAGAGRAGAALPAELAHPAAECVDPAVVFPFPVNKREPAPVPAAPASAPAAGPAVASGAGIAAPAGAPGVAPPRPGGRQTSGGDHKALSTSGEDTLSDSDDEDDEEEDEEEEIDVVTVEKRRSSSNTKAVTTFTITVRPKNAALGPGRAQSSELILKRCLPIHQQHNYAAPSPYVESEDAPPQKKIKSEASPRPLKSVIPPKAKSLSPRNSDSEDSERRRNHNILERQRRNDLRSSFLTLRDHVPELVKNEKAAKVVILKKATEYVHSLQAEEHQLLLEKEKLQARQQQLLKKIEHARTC
The assay is described as follows: Degradation of MycN protein in SK-N-BE(2) cells, JESS/Western blot of lysates. The conditions noted are these: SKNBE2, 24 h, SKNBE2 cells, 24 h; for Dmax at 3 µM: read-out: % Degradation of MycN (SKNBE2) 24 h, 3 μM; for Dmax at 6 µM: read-out: % Degradation of MycN (SKNBE2) 24 h, 6 μM; for Dmax at 0.5 µM: read-out: % Degradation of MycN (SKNBE2) 24 h, 0.5 μM; for Dmax at 1 µM: read-out: % Degradation of MycN (SKNBE2) 24 h, 1 μM. Format: cell-based. How it is done: (§1) For L363 cells (suspension), 1E6 cells were plated into each well of a 6 well plate. For SK-N-BE(2) cells (adherent), 5E5 cells were plated into each well of a 6 well dish. Cells were cultured for 24 hrs then treated with exemplary compounds at 0.1, 0.5, 1.0, 3.0 and 6.0 mM final assay concentrations plus DMSO control. All compounds were diluted to 10 mM in DMSO. Cells were treated with the compound for 24 hrs, then for both cell types, media containing cells were removed from wells into a 15 ml centrifuge tube, and remaining adherent SK-N-BE(2) cells were also scraped from the wells into the appropriate tubes. Tubes were centrifuged, cells were washed with PBS then re-centrifuged to pellet cells. A RIPA buffer cocktail was added to the cells on ice for 5 mins. Cell lysates were clarified by centrifugation and stored at −80 degrees until required. BCA assay was performed on each lysate to determine the protein concentration.
(§2) Once an appropriate lysate concentration and antibody concentration was determined, samples were screened in the JESS technology (Protein Simple, San Jose, CA—https://www.proteinsimple.com/jess.html).
(§3) Target protein antibodies (n-myc and c-myc) were detected in the chemi-luminescence channel and loading controls (tubulin and GAPDH) were detected using a Near Infra Red (NIR) labeled secondary antibody.
For SK-N-EB2 adherent cells, 5E5 cells in 1.9 mls media were plated into 6 well dishes and incubated for 24 hrs. Exemplary compounds were added (100 ul, 1 in 20 dilution in media) to each well (final assay concentration 6, 3, 1 and […]) together with DMSO control wells and incubated for 24 hrs. Cells were scrapped off the plate, centrifuged, washed with PBS, centrifuged, then a RIPA buffer cocktail added to the cells (100 ul), centrifuged and stored at −80 for later analysis. For L363 suspension cells, 1E6 cells were plated into 24 well dishes (950 ul media) and incubated for 24 hrs. Exemplary compounds were added (50 ul, 1 in 20 dilution in media) to each well (final assay concentration 6, 3, 1 and […]) together with DMSO control wells and incubated for 24 hrs. Cells were aspirated into tubes, centrifuged, washed with PBS, centrifuged, then a RIPA buffer cocktail added to the cells (100 ul), centrifuged and stored at −80 for later analysis.
(§4) For Western blot, a BCA (total protein) assay was run on all samples, these were then run in batches of 5 compounds plus control (DMSO) on each Western blot run—n-myc and c-myc were run in separate experiments in the chemiluminescence channel. Both tubulin and GAPDH were run as loading controls in all lanes in the near infra red channel.

For assay [2], the target named is T2, MycC (Homo sapiens, UniProt P01106).
T2 construct: endogenous in cells; host or cells: L363
Put plainly: Degradation of MycC protein in L363 cells, JESS/Western blot of lysates. Type of assay: cell-based. To be noted: L-363, 24 h, L-363 cells, 24 h; for Dmax at 0.5 µM: read-out: % Degradation of MycC (L-363) 24 h, 0.5 μM; for Dmax at 1 µM: read-out: % Degradation of MycC (L-363) 24 h, 1 μM; for Dmax at 3 µM: read-out: % Degradation of MycC (L-363) 24 h, 3 μM; for Dmax at 6 µM: read-out: % Degradation of MycC (L-363) 24 h, 6 μM. How it is done:
as §1, with “Cells were cultured for 24 hrs then treated with exemplary compounds at 0.1, 0.5, 1.0, 3.0 and 6.0 mM final assay concentrations plus DMSO control.” left out
as §2, §3
For SK-N-EB2 adherent cells, 5E5 cells in 1.9 mls media were plated into 6 well dishes and incubated for 24 hrs. […] Cells were scrapped off the plate, centrifuged, washed with PBS, centrifuged, then a RIPA buffer cocktail added to the cells (100 ul), centrifuged and stored at −80 for later analysis. For L363 suspension cells, 1E6 cells were plated into […] (950 ul media) and incubated for 24 hrs. […] Cells were aspirated into tubes, centrifuged, washed with PBS, centrifuged, then a RIPA buffer cocktail added to the cells (100 ul), centrifuged and stored at −80 for later analysis.
as §4
For orientation: Immunoblotting shows a protein as a band on a membrane.

T2 sequence (P01106 whole entry): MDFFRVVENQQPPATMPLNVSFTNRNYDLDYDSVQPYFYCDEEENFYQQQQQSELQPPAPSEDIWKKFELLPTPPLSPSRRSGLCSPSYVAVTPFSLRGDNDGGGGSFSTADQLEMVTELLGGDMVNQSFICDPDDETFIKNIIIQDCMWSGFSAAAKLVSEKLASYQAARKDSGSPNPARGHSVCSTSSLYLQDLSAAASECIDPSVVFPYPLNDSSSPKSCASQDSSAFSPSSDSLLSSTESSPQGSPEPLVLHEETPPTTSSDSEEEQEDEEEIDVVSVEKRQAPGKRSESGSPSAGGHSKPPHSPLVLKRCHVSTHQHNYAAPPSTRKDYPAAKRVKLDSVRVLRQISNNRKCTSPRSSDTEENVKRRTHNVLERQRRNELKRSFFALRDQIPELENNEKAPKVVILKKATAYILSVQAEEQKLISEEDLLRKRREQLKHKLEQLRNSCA

Take `CNCC1CCN(c2nccc(Nc3cc(C4CC4)[nH]n3)n2)CC1` [Compound 12, N-(5-Cyclopropyl-1H-pyrazol-3-yl)-2-(4-((methylamino)methyl)piperidin-1-yl)pyrimidin-4-amine]: in assay [1], the Dmax at 3 µM was 20 to 49% and the Dmax at 6 µM lay within 50 to 79%. Also, in assay [2], the Dmax at 0.5 µM is below 20%, the Dmax at 1 µM is below 20%, the Dmax at 3 µM lay in the range of 50 to 79% and the Dmax at 6 µM fell in the range of 80 to 100%.

Take `COC1CN(CC23CC(C2)N(c2nccc(Nc4cc(C5CCCC5)[nH]n4)n2)C3)C1` [Compound 177, N-(5-Cyclopentyl-1H-pyrazol-3-yl)-2-[4-[(3-methoxyazetidin-1-yl)methyl]-2-azabicyclo[2.1.1]hexan-2-yl]pyrimidin-4-amine]: in assay [1], the Dmax at 0.5 µM lay within 20 to 49%, the Dmax at 1 µM was below 20%, the Dmax at 3 µM was in the range of 50 to 79% and the Dmax at 6 µM was 50 to 79%. In assay [2], the Dmax at 0.5 µM was below 20%, the Dmax at 1 µM fell in the range of 20 to 49%, the Dmax at 3 µM is 20 to 49% and the Dmax at 6 µM lay within 80 to 100%.

`CNC[C@H]1CCN(c2nccc(Nc3cc(C4CC4)[nH]n3)n2)C1` [Compound 7, (R)—N-(5-Cyclopropyl-1H-pyrazol-3-yl)-2-(3-((methylamino)methyl)pyrrolidin-1-yl)pyrimidin-4-amine]: in assay [1], the Dmax at 0.5 µM is below 20%, the Dmax at 1 µM was below 20%, the Dmax at 3 µM was in the range of 50 to 79% and the Dmax at 6 µM was in the range of 80 to 100%. In addition, in assay [2], the Dmax at 1 µM was below 20%.

As for `NC[C@@H]1CCN(c2nccc(Nc3cc(C4CCCC4)[nH]n3)n2)C1` [Compound 110, 2-[(3S)-3-(Aminomethyl)pyrrolidin-1-yl]-N-(5-cyclopentyl-1H-pyrazol-3-yl)pyrimidin-4-amine], in assay [1], the Dmax at 0.5 µM lay in the range of 20 to 49%, the Dmax at 1 µM lay in the range of 50 to 79%, the Dmax at 3 µM is 50 to 79% and the Dmax at 6 µM lay in the range of 80 to 100%. Besides, in assay [2], the Dmax at 0.5 µM is below 20%, the Dmax at 3 µM was 80 to 100% and the Dmax at 6 µM is 80 to 100%.

For `NC[C@@H]1CCCN(c2nccc(Nc3cc(C4CCCC4)[nH]n3)n2)C1` [Compound 109, 2-[(3S)-3-(Aminomethyl)-1-piperidyl]-N-(5-cyclopentyl-1H-pyrazol-3-yl)pyrimidin-4-amine], in assay [1], the Dmax at 0.5 µM fell in the range of 20 to 49%, the Dmax at 1 µM lay in the range of 50 to 79%, the Dmax at 3 µM lay in the range of 50 to 79% and the Dmax at 6 µM is 80 to 100%. Besides, in assay [2], the Dmax at 0.5 µM is below 20%, the Dmax at 1 µM was below 20%, the Dmax at 3 µM lay within 80 to 100% and the Dmax at 6 µM fell in the range of 80 to 100%.

Take `CNCCCN(C)c1nccc(Nc2cc(C3CC3)[nH]n2)n1` [Compound 101, N^4-(5-Cyclopropyl-1H-pyrazol-3-yl)-N^2-methyl-N^2-[3-(methylamino)propyl]pyrimidine-2,4-diamine]: in assay [1], the Dmax at 0.5 µM was below 20%, the Dmax at 1 µM was below 20%, the Dmax at 3 µM was below 20% and the Dmax at 6 µM fell in the range of 20 to 49%. In assay [2], the Dmax at 0.5 µM fell in the range of 20 to 49%, the Dmax at 1 µM was in the range of 20 to 49%, the Dmax at 3 µM lay within 20 to 49% and the Dmax at 6 µM was 20 to 49%.

As for `CN1CCC2(C1)CN(c1nccc(Nc3cc(C4CC4)[nH]n3)n1)C2` [Compound 26, N-(5-cyclopropyl-1H-pyrazol-3-yl)-2-(7-methyl-2,7-diazaspiro[3.4]octan-2-yl)pyrimidin-4-amine], in assay [1], the Dmax at 0.5 µM is 20 to 49%, the Dmax at 1 µM was in the range of 20 to 49%, the Dmax at 3 µM lay within 20 to 49% and the Dmax at 6 µM was in the range of 50 to 79%. In addition, in assay [2], the Dmax at 0.5 µM lay in the range of 20 to 49%, the Dmax at 1 µM was 20 to 49% and the Dmax at 3 µM was below 20%.

For the compound `CNCCCNc1nccc(Nc2cc(C3CC3)[nH]n2)n1` [Compound 34, N^4-(5-cyclopropyl-1H-pyrazol-3-yl)-N^2-[3-(methylamino)propyl]pyrimidine-2,4-diamine], the Dmax at 6 µM in assay [1] was below 20%.

For `CS(=O)(=O)CCCNCC12CC(C1)N(c1nccc(Nc3cc(C4CCCC4)[nH]n3)n1)C2` [Compound 74, N-(5-Cyclopentyl-1H-pyrazol-3-yl)-2-[4-[(3-methylsulfonylpropylamino)methyl]-2-azabicyclo[2.1.1]hexan-2-yl]pyrimidin-4-amine], in assay [1], the Dmax at 0.5 µM fell in the range of 20 to 49%, the Dmax at 1 µM was in the range of 20 to 49%, the Dmax at 3 µM is 50 to 79% and the Dmax at 6 µM fell in the range of 80 to 100%.

Consider `OC1CN(CC23CC(C2)N(c2nccc(Nc4cc(C5CCCC5)[nH]n4)n2)C3)C1` [Compound 70], for which, in assay [1], the Dmax at 1 µM is below 20% and the Dmax at 6 µM lay within 20 to 49%.

As for `CN1CC(C2CN(c3nccc(Nc4cc(C5CC5)[nH]n4)n3)C2)C1` [Compound 46, N-(5-Cyclopropyl-1H-pyrazol-3-yl)-2-[3-(1-methylazetidin-3-yl)azetidin-1-yl]pyrimidin-4-amine], in assay [1], the Dmax at 6 µM was below 20%.

On to `CNC[C@H]1CN(c2nccc(Nc3cc(C4CCCC4)[nH]n3)n2)CCO1` [Compound 190, N-(5-Cyclopentyl-1H-pyrazol-3-yl)-2-[(2S)-2-(methylaminomethyl)morpholin-4-yl]pyrimidin-4-amine], for which, in assay [1], the Dmax at 0.5 µM was in the range of 20 to 49%, the Dmax at 1 µM lay in the range of 20 to 49%, the Dmax at 3 µM fell in the range of 50 to 79% and the Dmax at 6 µM lay in the range of 50 to 79%.

Regarding `CN1C[C@@H]2CN(c3nccc(Nc4cc(C5CC5)[nH]n4)n3)C[C@@H]21` [Compound 52, N-(5-cyclopropyl-1H-pyrazol-3-yl)-2-[(1R,5R)-6-methyl-3,6-diazabicyclo[3.2.0]heptan-3-yl]pyrimidin-4-amine], in assay [1], the Dmax at 6 µM is below 20%.

Turning to `CN(C)C[C@@H]1CCN(c2nccc(Nc3cc(C4CC4)[nH]n3)n2)C1` (stereo in doubt) [Compound 33, N-(5-Cyclopropyl-1H-pyrazol-3-yl)-2-[rac-(3S)-3-[(dimethylamino)methyl]pyrrolidin-1-yl]pyrimidin-4-amine], in assay [1], the Dmax at 0.5 µM lay within 20 to 49%, the Dmax at 1 µM fell in the range of 20 to 49%, the Dmax at 3 µM lay within 50 to 79% and the Dmax at 6 µM was in the range of 50 to 79%.
